Results from patent US20250177363A1, “SUBSTITUTED IMIDAZOPYRIDINYL COMPOUNDS USEFUL AS INHIBITORS OF TLR9” (Bristol-Myers Squibb Company, priority 2022, published 2025).

Legend:
Type in all cases: cell-based
human TLR9 = target: T1, human TLR9 (Homo sapiens, UniProt Q9NR96); test: TLR9 inhibition reporter assay (HEK-Blue, SEAP); details: HEK-Blue cells overexpressing human TLR9, ligand ODN2006 200 nM, 22 hour incubation
T1 construct: host or cells: HEK-Blue cells
T1 sequence (Q9NR96 26-1032): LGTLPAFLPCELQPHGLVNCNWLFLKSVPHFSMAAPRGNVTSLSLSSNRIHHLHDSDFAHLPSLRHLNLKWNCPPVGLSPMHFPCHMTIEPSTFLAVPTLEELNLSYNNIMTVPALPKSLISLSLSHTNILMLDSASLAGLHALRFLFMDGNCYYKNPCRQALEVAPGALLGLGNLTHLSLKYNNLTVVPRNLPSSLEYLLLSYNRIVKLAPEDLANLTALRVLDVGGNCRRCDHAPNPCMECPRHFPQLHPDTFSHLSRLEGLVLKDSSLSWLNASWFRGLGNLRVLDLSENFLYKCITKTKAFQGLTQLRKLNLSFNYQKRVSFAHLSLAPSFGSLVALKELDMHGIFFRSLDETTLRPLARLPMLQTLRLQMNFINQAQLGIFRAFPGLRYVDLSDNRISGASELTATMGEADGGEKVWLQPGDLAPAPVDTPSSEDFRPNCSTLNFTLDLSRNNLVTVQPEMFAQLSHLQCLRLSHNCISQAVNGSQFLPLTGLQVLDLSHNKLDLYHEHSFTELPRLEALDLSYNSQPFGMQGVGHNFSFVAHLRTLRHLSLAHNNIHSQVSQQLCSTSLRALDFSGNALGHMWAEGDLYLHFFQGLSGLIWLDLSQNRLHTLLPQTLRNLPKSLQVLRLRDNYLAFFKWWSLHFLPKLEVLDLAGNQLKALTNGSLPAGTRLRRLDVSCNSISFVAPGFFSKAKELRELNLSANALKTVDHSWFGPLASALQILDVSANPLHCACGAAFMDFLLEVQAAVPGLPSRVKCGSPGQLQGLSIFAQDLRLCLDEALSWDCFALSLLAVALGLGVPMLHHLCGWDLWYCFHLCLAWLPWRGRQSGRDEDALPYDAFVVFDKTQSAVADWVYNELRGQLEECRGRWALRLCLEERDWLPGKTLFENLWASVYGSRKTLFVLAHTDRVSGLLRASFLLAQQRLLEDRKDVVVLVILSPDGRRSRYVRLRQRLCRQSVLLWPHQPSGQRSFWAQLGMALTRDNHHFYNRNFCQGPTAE
How it was run: (§1)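 HEK-Blue cells expressing human TLR7, TLR8 or TLR9 with NF-κB/AP-1-driven SEAP reporter; compounds 0.85 nM–50 μM, pre-treated 60 min. Stimulation: gardiquimod 2.5 μM (TLR7), R848 14.25 μM (TLR8), ODN2006 200 nM (TLR9); SEAP read after 22 h at 37 °C. Percent inhibition normalized between agonist+DMSO and known-inhibitor wells.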

human TLR7 = target: T2, human TLR7 (Homo sapiens, UniProt Q9NYK1); test: TLR7 inhibition reporter assay (HEK-Blue, SEAP); details: HEK-Blue cells overexpressing human TLR7, ligand gardiquimod 2.5 μM, 22 hour incubation
T2 construct: host or cells: HEK-Blue cells
T2 sequence (Q9NYK1 27-1049): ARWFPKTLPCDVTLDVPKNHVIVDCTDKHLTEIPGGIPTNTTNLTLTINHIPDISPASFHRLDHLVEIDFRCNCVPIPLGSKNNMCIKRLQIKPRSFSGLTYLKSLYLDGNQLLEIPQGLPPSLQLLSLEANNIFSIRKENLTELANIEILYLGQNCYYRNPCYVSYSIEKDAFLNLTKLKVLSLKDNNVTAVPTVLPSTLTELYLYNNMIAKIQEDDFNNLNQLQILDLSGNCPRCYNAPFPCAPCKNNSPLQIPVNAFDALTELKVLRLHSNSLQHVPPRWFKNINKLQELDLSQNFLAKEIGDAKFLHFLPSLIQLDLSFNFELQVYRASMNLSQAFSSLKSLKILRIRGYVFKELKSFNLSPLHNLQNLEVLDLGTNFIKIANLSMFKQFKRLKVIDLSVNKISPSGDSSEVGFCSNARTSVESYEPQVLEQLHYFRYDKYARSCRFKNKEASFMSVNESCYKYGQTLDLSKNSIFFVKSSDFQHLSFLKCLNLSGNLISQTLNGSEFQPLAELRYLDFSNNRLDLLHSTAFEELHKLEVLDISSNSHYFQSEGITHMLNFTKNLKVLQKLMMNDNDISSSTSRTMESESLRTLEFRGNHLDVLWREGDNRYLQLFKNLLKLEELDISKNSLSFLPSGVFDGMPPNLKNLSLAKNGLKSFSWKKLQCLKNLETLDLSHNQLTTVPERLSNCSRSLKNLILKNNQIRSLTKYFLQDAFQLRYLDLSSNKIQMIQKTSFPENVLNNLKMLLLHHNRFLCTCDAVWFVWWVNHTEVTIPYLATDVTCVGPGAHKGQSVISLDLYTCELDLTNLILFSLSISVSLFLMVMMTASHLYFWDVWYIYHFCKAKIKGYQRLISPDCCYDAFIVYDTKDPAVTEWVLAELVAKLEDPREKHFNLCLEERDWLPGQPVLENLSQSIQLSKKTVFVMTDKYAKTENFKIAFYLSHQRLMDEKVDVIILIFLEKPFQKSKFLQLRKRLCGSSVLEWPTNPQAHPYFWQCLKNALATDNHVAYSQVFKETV
How it was run: as §1

human TLR8 = target: T3, human TLR8 (Homo sapiens, UniProt Q9NR97); test: TLR8 inhibition reporter assay (HEK-Blue, SEAP); details: HEK-Blue cells overexpressing human TLR8, ligand R848 14.25 μM, 22 hour incubation
T3 construct: host or cells: HEK-Blue cells
T3 sequence (Q9NR97 27-1041): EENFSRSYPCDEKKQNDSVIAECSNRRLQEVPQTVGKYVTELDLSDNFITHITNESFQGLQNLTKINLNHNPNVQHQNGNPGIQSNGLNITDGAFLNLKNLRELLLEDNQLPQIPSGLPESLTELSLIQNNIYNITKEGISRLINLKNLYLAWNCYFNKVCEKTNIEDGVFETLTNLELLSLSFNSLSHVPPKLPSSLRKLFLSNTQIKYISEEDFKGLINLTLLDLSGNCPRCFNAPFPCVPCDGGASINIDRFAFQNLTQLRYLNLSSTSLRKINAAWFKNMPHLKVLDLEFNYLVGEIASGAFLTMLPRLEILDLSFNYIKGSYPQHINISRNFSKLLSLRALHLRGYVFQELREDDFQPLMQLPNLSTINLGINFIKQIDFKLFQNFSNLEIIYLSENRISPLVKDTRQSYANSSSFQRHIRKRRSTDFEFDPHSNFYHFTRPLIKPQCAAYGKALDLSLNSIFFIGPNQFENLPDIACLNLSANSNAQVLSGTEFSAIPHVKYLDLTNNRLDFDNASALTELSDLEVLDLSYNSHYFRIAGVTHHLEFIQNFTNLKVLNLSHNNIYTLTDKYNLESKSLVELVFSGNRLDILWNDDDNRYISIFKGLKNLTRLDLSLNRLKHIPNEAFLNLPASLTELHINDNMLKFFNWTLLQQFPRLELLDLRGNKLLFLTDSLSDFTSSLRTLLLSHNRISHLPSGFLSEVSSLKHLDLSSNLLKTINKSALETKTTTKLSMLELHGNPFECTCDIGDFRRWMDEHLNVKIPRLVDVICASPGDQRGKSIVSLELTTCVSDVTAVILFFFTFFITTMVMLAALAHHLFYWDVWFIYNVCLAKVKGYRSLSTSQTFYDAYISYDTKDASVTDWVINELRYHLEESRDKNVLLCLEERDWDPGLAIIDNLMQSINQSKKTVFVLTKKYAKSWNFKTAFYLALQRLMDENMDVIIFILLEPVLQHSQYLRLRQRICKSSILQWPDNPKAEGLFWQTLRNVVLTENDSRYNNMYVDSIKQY
How it was run: as §1

SMILES	IC50 (human TLR9)	IC50 (human TLR7)	IC50 (human TLR8)
COc1ccc(-c2nc3ncc(-c4ccc(N5CCN(C(C)C)CC5)cc4)cc3n2C)cc1OC [Example 48, 2-(3,4-dimethoxyphenyl)-6-(4-(4-isopropylpiperazin-1-yl)phenyl)-1-methyl-1H-imidazo[4,5-b]pyridine]	280 nM	1500 nM	18000 nM
CC(C)N1CCN(c2ccc(-c3cnc4nc(-c5ccc(S(C)(=O)=O)cc5)n(C)c4c3)cc2)CC1 [Example 49, 6-(4-(4-isopropylpiperazin-1-yl)phenyl)-1-methyl-2-(4-(methylsulfonyl)phenyl)-1H-imidazo[4,5-b]pyridine]	350 nM	4200 nM	2700 nM
CC(C)N1CCN(c2ccc(-c3cnc4nc(-c5ccc(S(C)(=O)=O)cc5)n(C5CC5)c4c3)cc2)CC1 [Example 51, 1-cyclopropyl-6-(4-(4-isopropylpiperazin-1-yl)phenyl)-2-(4-(methylsulfonyl)phenyl)-1H-imidazo[4,5-b]pyridine]	340 nM	2700 nM	4200 nM
CC(C)N1CCN(c2ccc(-c3ccc4nc(-c5ccc(S(C)(=O)=O)cc5)n(C)c4n3)cc2)CC1 [Example 53, 5-(4-(4-isopropylpiperazin-1-yl)phenyl)-3-methyl-2-(4-(methylsulfonyl)phenyl)-3H-imidazo[4,5-b]pyridine]	930 nM	> 50000 nM	> 50000 nM
CC(C)N1CCN(c2ccc(-c3ccc4nc(-c5ccc(S(C)(=O)=O)cc5)n(C5CC5)c4n3)cc2)CC1 [Example 54, 3-cyclopropyl-5-(4-(4-isopropylpiperazin-1-yl)phenyl)-2-(4-(methylsulfonyl)phenyl)-3H-imidazo[4,5-b]pyridine]	760 nM	> 50000 nM	> 50000 nM

The next lines start with the values.

IC50 (human TLR9)	IC50 (human TLR7)	IC50 (human TLR8)	SMILES
73 nM	480 nM	> 50000 nM	COCCN1C[C@H]2C[C@H](N3CCC(c4cc(C)c5nc(-c6ccc(OC)c(OC)c6)n(C)c5n4)CC3)C[C@H]2C1 [Example 41, 2-(3,4-dimethoxyphenyl)-5-(1-((3aR,5s,6aS)-2-(2-methoxyethyl)octahydrocyclopenta[c]pyrrol-5-yl)piperidin-4-yl)-3,7-dimethyl-3H-imidazo[4,5-b]pyridine]
84 nM	17000 nM	> 50000 nM	COc1cc(-c2nc3c(C)cc(C4CCN([C@H]5C[C@@H]6CN(C7CCC7)C[C@@H]6C5)CC4)nc3n2C)cn2ncnc12 [Example 42, 5-(1-((3aR,5s,6aS)-2-cyclobutyloctahydrocyclopenta[c]pyrrol-5-yl)piperidin-4-yl)-2-(8-methoxy-[1,2,4]triazolo[1,5-a]pyridin-6-yl)-3,7-dimethyl-3H-imidazo[4,5-b]pyridine]
52 nM	250 nM	> 50000 nM	COc1cc(-c2nc3c(C)cc(C4CCN([C@H]5C[C@@H]6CN(CC7CC7)C[C@@H]6C5)CC4)nc3n2C)cn2ncnc12 [Example 43, 5-(1-((3aR,5s,6aS)-2-(cyclopropylmethyl)octahydrocyclopenta[c]pyrrol-5-yl)piperidin-4-yl)-2-(8-methoxy-[1,2,4]triazolo[1,5-a]pyridin-6-yl)-3,7-dimethyl-3H-imidazo[4,5-b]pyridine]
180 nM	4500 nM	> 50000 nM	COc1cc(-c2nc3c(C)cc(C4CCN([C@H]5C[C@@H]6CN(C7CCOCC7)C[C@@H]6C5)CC4)nc3n2C)cn2ncnc12 [Example 44, 2-(8-methoxy-[1,2,4]triazolo[1,5-a]pyridin-6-yl)-3,7-dimethyl-5-(1-((3aR,5s,6aS)-2-(tetrahydro-2H-pyran-4-yl)octahydrocyclopenta[c]pyrrol-5-yl)piperidin-4-yl)-3H-imidazo[4,5-b]pyridine]
27 nM	360 nM	> 50000 nM	COCCN1C[C@H]2C[C@H](N3CCC(c4cc(C)c5nc(-c6cc(OC)c7ncnn7c6)n(C)c5n4)CC3)C[C@H]2C1 [Example 46, 2-(8-methoxy-[1,2,4]triazolo[1,5-a]pyridin-6-yl)-5-(1-((3aR,5s,6aS)-2-(2-methoxyethyl)octahydrocyclopenta[c]pyrrol-5-yl)piperidin-4-yl)-3,7-dimethyl-3H-imidazo[4,5-b]pyridine]
290 nM	15000 nM	> 50000 nM	Cc1cc(-c2ccc(CN3CCC(N4CCOCC4)CC3)cc2)nc2c1nc(-c1ccc(S(C)(=O)=O)cc1)n2C1CC1 [Example 47, 4-(1-(4-(3-cyclopropyl-7-methyl-2-(4-(methylsulfonyl)phenyl)-3H-imidazo[4,5-b]pyridin-5-yl)benzyl)piperidin-4-yl)morpholine]
640 nM	1200 nM	> 50000 nM	COc1ccc(-c2nc3ccc(-c4ccc(N5CCN(C(C)C)CC5)cc4)nc3n2C)cc1OC [Example 52, 2-(3,4-dimethoxyphenyl)-5-(4-(4-isopropylpiperazin-1-yl)phenyl)-3-methyl-3H-imidazo[4,5-b]pyridine]
